How the values were obtained:
osteopontin = test: Western blot of osteopontin expression after exposure to ASOs; type: cell-based, human; conditions: for osteopontin expression in relation to untreated control (100%): MDA-MB231, lipofectamine, 10 μM; for reduction of osteopontin expression: MDA-MB-231
bone sialoprotein II = test: Western blot of bone sialoprotein II expression after exposure to ASOs; type: cell-based, human; conditions: for bone sialoprotein II expression in relation to untreated control (100%): 10 μM

Substance: 5′-CTAACTTAAAAAACAAAAGA-3′ (antisense CTAACTTAAAAAACAAAAGA; all phosphorothioate, sugars by position and methylation of C not given here) [ASO-OPN-4]
- osteopontin expression in relation to untreated control (100%) (osteopontin; single exposure): 16%
- osteopontin expression in relation to untreated control (100%) (osteopontin; twofold exposure): 23%
- reduction of osteopontin expression (osteopontin; repeated ASO exposure): 77%
- reduction of osteopontin expression (osteopontin; single exposure): 84%
- maximum inhibition of protein expression / suppression of protein level (OPN) (osteopontin; MDA-MB-231 cells, Western blot): 85%

Substance: 5′-GCT-TTC-TTC-GTT-TTC-ATT-TC-3′ [ASO-BSPII-6]
- bone sialoprotein II expression in relation to untreated control (100%) (bone sialoprotein II; MDA-MB231, single exposure, electroporation): 16%
- bone sialoprotein II expression in relation to untreated control (100%) (bone sialoprotein II; MDA-MB231, single exposure, lipofectamine): 33%
- bone sialoprotein II expression in relation to untreated control (100%) (bone sialoprotein II; MDA-MB231, twofold exposure, lipofectamine): 15%
- bone sialoprotein II expression in relation to untreated control (100%) (bone sialoprotein II; MDA-MB231^F (growing without FBS), single exposure, lipofectamine): 79%
- bone sialoprotein II expression in relation to untreated control (100%) (bone sialoprotein II; MDA-MB435s, single exposure, lipofectamine): 0%
- maximum inhibition of protein expression / suppression of protein level (BSP II) (bone sialoprotein II; MDA-MB-231 cells, Western blot): 75%
- reduction of bone sialoprotein expression (bone sialoprotein II; single exposure): 84%
- reduction of bone sialoprotein protein level (bone sialoprotein II; twofold exposure): 81%

Reference: patent publication US20090017103A1, “Antisense oligonucleotides for prevention of metastasis formation of cancer cells” (priority 2003, published 2009)
